Patent publication US20250296955A1, “PIN1 TARGETING COMPOUNDS AND DEGRADERS AND METHODS THEREOF” (The Regents of the University of California, priority 2024, published 2025)
Like-named read-outs stand apart in the source and are kept apart here. Where a SMILES comes first, the peptide text is derived from it. [ ]: non-standard residue; d: D form. The star is where a group is joined. Tyr(3-NO2) = N[C@@H](Cc1ccc(O)c([N+](=O)[O-])c1)C(=O)O; Phe(4-NO2) = N[C@@H](Cc1ccc([N+](=O)[O-])cc1)C(=O)O; Trp(5-OH) = N[C@@H](Cc1c[nH]c2ccc(O)cc12)C(=O)O; pY = N[C@@H](Cc1ccc(OP(=O)(O)O)cc1)C(=O)O; Phe(3-CN) = N#Cc1cccc(C[C@H](N)C(=O)O)c1; Phe(4-CN) = N#Cc1ccc(C[C@H](N)C(=O)O)cc1; Phe(4-Cl) = N[C@@H](Cc1ccc(Cl)cc1)C(=O)O; Phe(4-F) = N[C@@H](Cc1ccc(F)cc1)C(=O)O; mTyr = N[C@@H](Cc1cccc(O)c1)C(=O)O; 4Pal = N[C@@H](Cc1ccncc1)C(=O)O; Pip = O=C(O)[C@@H]1CCCCN1; ClAc = O=C(CCl)*

Columns and labels:
Pin1 [1] = target: T1, Pin1 (Homo sapiens, UniProt Q13526); assay: DELFIA displacement assay (displacement of biotinylated D-peptide from 6His-Pin1); format: binding; design: human Pin1 (residues 1-163); made in house; host or cells: E. coli BL21 (DE3) gold pLysS
Excerpt: (§1) Important to the success of structure activity relations studies, robust biochemical, biophysical, and cell-based assays were implemented that enabled rapid and iterative evaluations of test Pin1 targeting agents. First, the DELFIA (Dissociation-enhanced lanthanide fluorescent immunoassay) assay platform was used to derive a robust heterogeneous assay to monitor the ability of test agents to displace the binding between Pin1 and the D-Peptide (Table 1), which was obtained in a biotinylated form (FIG. 10). […] Second, for an orthogonal biophysical assay denaturation thermal shift measurements were used. Pin1 was incubated with vehicle control (buffer with 1% DMSO), or test agents at protein: ligand ratio of 1:2 (20 μM protein-40 μM compound) for 10 min at 10° C. in the presence of the fluorescent dye SYPRO Orange. The samples were gradually exposed to increasing temperature (linear gradient from 10° C. to 95° C.), causing the protein to unfold. This unfolding allowed the fluorescent dye to bind to the protein's exposed hydrophobic residues, resulting in an increase in fluorescence. The thermal shift assay measures the protein's melting temperature (Tm), which is the temperature at which the protein denatures by 50%. Ligands can affect a protein target to thermal denaturation, which could manifest in a positive or negative shift in the protein denaturation temperature (ΔTm) (Bai N, Roder H, Dickson A, & Karanicolas J (2019) Scientific Reports 9; and Kranz J K & Schalk-Hihi C (2011) Fragment-Based Drug Design: Tools, Practical Approaches, and Examples 493:277-298). Using these two assays, a series of commercially available Pin1 inhibitors were profiled (Table 1). The non-covalent agent D-peptide resulted only moderately active, with an IC50 value of ˜3 μM that closely resembled the dissociation constant for this agent determined via isothermal titration calorimetry, and the ˜ 3 μM IC50 value as reported by a fluorescence polarization assay (Pinch B J, et al. (2020) Nat Chem Biol 16(9):979-987). […] (Table 1) was observed.
For the reported covalent agents such as sulfopin (Dubiella C, et al. (2021) Nat Chem Biol 17(9):954-963), BJP-07-017-3 (Pinch B J, et al. (2020) Nat Chem Biol 16(9):979-987), or KPT-6566 (Campaner E, et al. (2017) Nat Commun 8:15772), a 6-h pre-incubation period was included in the DELFIA assay to allow the covalent reaction to take place. For those agents, IC50 values that fell in the low nanomolar range were observed, consistent with what was reported previously for those compounds. […] To make those determinations in a broader panel of cancer cell lines three pancreatic cancer cell lines, BxPC3, MIA-PaCa-2, and PANC-1, the breast cancer cell line MDA-MB-231, the prostate cancer cell line PC3, and the non-small cell lung cancer cell line A549 were chosen. Each cell line represents various states of KRAS activating mutations (for example BxPC3 is wt-KRAS, while MIAPaCa2 carries the KRAS(G12C) mutation, and the PANC-1 the KRAS(G12D) (Miquel M, Zhang S, & Pilarsky C (2021) Front Cell Dev Biol 9:748631), A549 is KRAS(G12S) (Wang H, et al. (2019) EBioMedicine 49:106-117), MDA-MB-231 is KRAS(G13D) (Kim R K, et al. (2015) Exp Mol Med 47(1):e137), PC3 is wt-KRAS (Bouali S, et al. (2009) Oncol Rep 21(3):731-735). Pin1 protein levels in these cell lines were established using a specific Pin1 antibody in western blot analyses (FIG. 1A). The data confirmed that all these selected human cancer cell lines expressed a significant level of Pin1 (FIG. 1A).
Each well of 96-well streptavidin-coated plates (PerkinElmer) was incubated with 100 μL of 200 nM biotinylated D-peptide for 2 h and washed 3 times with a wash solution (PerkinElmer). Subsequently, a mixture containing Pin1, and a serial dilution of the test compounds were pre-incubated for 6 h. Eu-N1-labeled anti-6x-His antibody (PerkinElmer, 1:2000) was then added to this mixture and further incubated in the biotinylated D-peptide-bound plates for another 2 h. […]

Pin1 [2] = target: T1, Pin1; assay: Denaturation thermal shift assay (SYPRO Orange); format: binding; design: human Pin1 (residues 1-163); made in house; host or cells: E. coli BL21 (DE3) gold pLysS; conditions: for share of first thermal shift peak: percentage in brackets after first ΔTm; for share of second thermal shift peak: percentage in brackets after second ΔTm
Excerpt: as §1
Thermal shift assays for Pin1 alone and in the presence of the inhibitors were obtained with a BioRad CFX Connect Real-Time PCR Detection System. Each data point was collected in quadruplicate. Each sample was prepared using buffer 50 mM Phosphate pH 7.5, 150 mM NaCl, 1% DMSO. Protein: ligand ratio used was 1:2 (20 μM protein-40 μM compound), and SYPRO Orange was used. Incubation of the Pin1 protein with the compounds was performed at 10° C. for 10 min. Samples were then heated from 10 to 95° C. with heating increments of 0.05° C., over 30 min. Fluorescence intensity was measured within the excitation/emission ranges 470-505/540-700 nm.

[3] = Table 2, ± SE of four replicates
[4] = running text and figure legends
[5] = Table 3, single transition, ± SE of four replicates
[6] = Table 3, two peaks observed, likely incomplete complex formation
[7] = Table 5, only one transition given
[8] = Table 4, single transition, ± SE of four replicates

T1 sequence (Q13526 whole entry, the tested form may be a part): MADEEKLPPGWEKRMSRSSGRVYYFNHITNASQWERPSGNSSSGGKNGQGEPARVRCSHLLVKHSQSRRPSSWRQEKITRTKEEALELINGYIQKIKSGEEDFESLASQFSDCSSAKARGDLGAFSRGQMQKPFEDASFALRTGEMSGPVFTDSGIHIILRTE

SMILES | IC50 (Pin1 [1]; Table 3, ± SD from duplicates) | ΔTm (° C.) (Pin1 [2]; [5]) | also measured
CN[C@@H](Cc1ccccc1)C(=O)N1CCCC[C@H]1C(=O)N[C@@H](Cc1c[nH]c2ccccc12)C(=O)N[C@@H](CCCNC(N)=O)C(N)=O [158B3] (HELM PEPTIDE1{[meF].[O=C([C@@H]1CCCCN1[*:1])[*:2]].W.[Cit].[am]}$$$$V2.0) |  |  | IC50 (Pin1 [1]): > 10 µM; IC50 (Pin1 [1]; Table 2, in μM): > 10 µM; ΔTm (° C.) (Pin1 [2]; [3]): 0.62 ± 0.04 °C; ΔTm (Pin1 [2]; [4]): +0.62 °C
NC(=O)[C@H](Cc1c[nH]c2ccccc12)NC(=O)[C@@H]1CCCCN1C(=O)[C@H](Cc1cccc(O)c1)NC(=O)CCl [158D9] (ClAc-[mTyr]-[Pip]-Trp-NH2) | 0.034 ± 0.002 µM | −8.28 ± 0.04 °C | 
NC(=O)[C@H](Cc1c[nH]c2ccccc12)NC(=O)[C@@H]1CCCCN1C(=O)[C@H](Cc1ccccc1)NC(=O)CCl [158D10] (HELM PEPTIDE1{[O=C(CCl)[*:2]].F.[O=C([C@@H]1CCCCN1[*:1])[*:2]].W.[am]}$$$$V2.0) |  |  | IC50 (Pin1 [1]; Table 2, ± SD from duplicates): 0.146 ± 0.019 µM; ΔTm (° C.) (Pin1 [2]; [3]): −10.40 ± 0.04 °C
CN(C(=O)CCl)[C@@H](Cc1ccccc1)C(=O)N1CCCC[C@H]1C(=O)N[C@@H](Cc1c[nH]c2ccccc12)C(N)=O [158D11] (HELM PEPTIDE1{[O=C(CCl)[*:2]].[meF].[O=C([C@@H]1CCCCN1[*:1])[*:2]].W.[am]}$$$$V2.0) |  |  | ΔTm (° C.) (Pin1 [2]; [3]): −10.66 ± 0.04 °C
NC(=O)[C@H](Cc1c[nH]c2ccccc12)NC(=O)[C@@H]1CCCCN1C(=O)[C@H](Cc1ccc(OP(=O)(O)O)cc1)NC(=O)CCl [158E7] (ClAc-[pY]-[Pip]-Trp-NH2) | 0.327 ± 0.025 µM | −7.08 ± 0.22 °C | 
NC(=O)[C@H](Cc1c[nH]c2ccc(O)cc12)NC(=O)[C@@H]1CCCCN1C(=O)[C@H](Cc1ccccc1)NC(=O)CCl [158F9] (ClAc-Phe-[Pip]-[Trp(5-OH)]-NH2) | 0.135 ± 0.001 µM | −9.99 ± 0.00 °C | 
NC(=O)[C@H](Cc1c[nH]c2ccccc12)NC(=O)[C@@H]1CCCCN1C(=O)[C@H](Cc1ccc([N+](=O)[O-])cc1)NC(=O)CCl [158G2] (ClAc-[Phe(4-NO2)]-[Pip]-Trp-NH2) | 0.134 ± 0.013 µM | −10.16 ± 0.04 °C | 
N#Cc1cccc(C[C@H](NC(=O)CCl)C(=O)N2CCCC[C@H]2C(=O)N[C@@H](Cc2c[nH]c3ccccc23)C(N)=O)c1 [158G3] (ClAc-[Phe(3-CN)]-[Pip]-Trp-NH2) | 0.132 ± 0.021 µM | −10.06 ± 0.07 °C | 
N#Cc1ccc(C[C@H](NC(=O)CCl)C(=O)N2CCCC[C@H]2C(=O)N[C@@H](Cc2c[nH]c3ccccc23)C(N)=O)cc1 [158G4] (ClAc-[Phe(4-CN)]-[Pip]-Trp-NH2) | 0.118 ± 0.021 µM | −9.71 ± 0.07 °C | 
NC(=O)[C@H](Cc1c[nH]c2ccccc12)NC(=O)[C@@H]1CCCCN1C(=O)[C@H](Cc1ccc(O)cc1)NC(=O)CCl [158G5] (HELM PEPTIDE1{[O=C(CCl)[*:2]].Y.[O=C([C@@H]1CCCCN1[*:1])[*:2]].W.[am]}$$$$V2.0) | 0.119 ± 0.006 µM | −9.29 ± 0.04 °C | 
O=C(CCl)N[C@@H](Cc1ccccc1)C(=O)N1CCCC[C@H]1C(=O)NCCc1c[nH]c2cc(Cl)cc(Cl)c12 [158G6] | 0.327 ± 0.018 µM |  | share of first thermal shift peak (Pin1 [2]; Table 3): 70%; share of second thermal shift peak (Pin1 [2]; Table 3): 30%; ΔTm (° C.), first of two peaks (Pin1 [2]; [6]): +1.04 ± 0.08 °C; ΔTm (° C.) (Pin1 [2]; [7]): +1.04 ± 0.08 °C
O=C(CCl)N[C@@H](Cc1ccccc1)C(=O)N1CCCC[C@H]1C(=O)NCCc1c[nH]c2ccc(F)cc12 [158G7] | 1.04 ± 0.316 µM |  | share of first thermal shift peak (Pin1 [2]; Table 3): 50%; share of second thermal shift peak (Pin1 [2]; Table 3): 50%; ΔTm (° C.), first of two peaks (Pin1 [2]; [6]): −0.45 ± 0.15 °C; ΔTm (° C.), second printed of two peaks (Pin1 [2]; [6]): −14.28 ± 0.28 °C
NC(=O)[C@H](Cc1c[nH]c2ccccc12)NC(=O)[C@@H]1CCCCN1C(=O)[C@H](Cc1c[nH]c2ccccc12)NC(=O)CCl [158G9] (HELM PEPTIDE1{[O=C(CCl)[*:2]].W.[O=C([C@@H]1CCCCN1[*:1])[*:2]].W.[am]}$$$$V2.0) | 0.044 ± 0.008 µM | −9.42 ± 0.18 °C | IC50 (Pin1 [1]; [4]): 0.043 µM
NC(=O)[C@H](Cc1c[nH]c2ccccc12)NC(=O)[C@@H]1CCCCN1C(=O)[C@H](Cc1ccc(O)c([N+](=O)[O-])c1)NC(=O)CCl [158G10] (ClAc-[Tyr(3-NO2)]-[Pip]-Trp-NH2) | 0.183 ± 0.012 µM | −10.44 ± 0.17 °C | 
NC(=O)[C@H](Cc1c[nH]c2ccccc12)NC(=O)[C@@H]1CCCCN1C(=O)[C@H](Cc1ccc(F)cc1)NC(=O)CCl [158G11] (ClAc-[Phe(4-F)]-[Pip]-Trp-NH2) | 0.146 ± 0.012 µM | −10.57 ± 0.11 °C | 
NC(=O)[C@H](Cc1c[nH]c2ccccc12)NC(=O)[C@@H]1CCCCN1C(=O)[C@H](Cc1ccc(Cl)cc1)NC(=O)CCl [158G12] (ClAc-[Phe(4-Cl)]-[Pip]-Trp-NH2) | 0.527 ± 0.038 µM |  | ΔTm (° C.) (Pin1 [2]; [7]): −12.19 ± 0.07 °C
NC(=O)[C@H](Cc1c[nH]c2ccccc12)NC(=O)[C@@H]1CCCCN1C(=O)[C@H](Cc1ccncc1)NC(=O)CCl [158H1] (ClAc-[4Pal]-[Pip]-Trp-NH2) | 0.099 ± 0.004 µM | −9.18 ± 0.07 °C | 
NC(=O)[C@H](Cc1c[nH]c2ccccc12)NC(=O)[C@@H]1CCCCN1C(=O)[C@H](Cc1c[nH]c2ccc(O)cc12)NC(=O)CCl [158H3] (ClAc-[Trp(5-OH)]-[Pip]-Trp-NH2) |  |  | IC50 (Pin1 [1]; Table 4, ± SD from duplicates): 0.056 ± 0.005 µM; ΔTm (° C.) (Pin1 [2]; [8]): −6.56 ± 0.04 °C
COc1ccc(C[C@H](NC(=O)CCl)C(=O)N2CCCC[C@H]2C(=O)N[C@@H](Cc2c[nH]c3ccccc23)C(N)=O)cc1 [158H5] (ClAc-Tyr(Me)-[Pip]-Trp-NH2) | 0.0824 ± 0.0004 µM | −9.82 ± 0.08 °C | 
Cc1cccc2c(C[C@H](NC(=O)[C@@H]3CCCCN3C(=O)[C@@H]3Cc4c([nH]c5ccccc45)CN3C(=O)CCl)C(N)=O)c[nH]c12 [164A11] |  |  | ΔTm (° C.) (Pin1 [2]; [8]): +10.45 ± 0.07 °C
